US4740501A (priority 1985, dated 1988)

Columns and labels:
P388/L-PAM leukemia = assay: cells; format: cell-based, mice
L1210 leukemia cells [1] = assay: Tumorigenicity of in vitro treated leukemia cells in BDF1 recipients; format: in vivo, BDF1 mice; conditions: for MST: L1210, control 10
Procedure: All in vitro PTT.119 and L-PAM treatment of cells were carried out at 37° C. in the appropriate complete growth media containing 10% or 18% sera. L1210, L1210/L-PAM and P388/L-PAM cell suspensions of 1×10^6 cells/ml were subjected to a single 15, 30 or 60 min pulse exposure to 3.75, 7.5 and 15 uM PTT.119 or L-PAM. Following treatment, media were removed by pelleting the cells at 200×g for 9 min at 5° C. Cells were then gently washed twice with fresh growth media and finally resuspended in RPMI-1630 medium with 10% FBS for in vitro cultures.
Suspensions of PTT.119 or L-PAM treated cells, and control leukemia cells were adjusted to 1×10^7 cells/ml based on tumor cell concentrations prior to drug exposure. Syngeneic female BDF1 (BALB/c×DBA/2)f, mice weighing 20 to 26 g received intraperitoneal injections of 1×10^6 cells. Mice were monitored daily throughout the 45 day examination period and were autopsied at the time of death.

MJY-alpha monolayers [2] = format: cell-based
P HR-1 B-lymphoma = assay: Tumor cell survival (trypan blue), continuous exposure; format: cell-based, Human
Raji B-lymphoma = assay: as above; format: cell-based, Human
L1210 leukemia cells [3] = system: L1210 leukemia cells
MMTV = assay: Extracellular MMTV protein by ELISA; format: cell-based, mouse; conditions: for ug MMTV protein/150 cm^2 culture: untreated 20.32
Procedure: Extracellular MMTV was quantitated using a modification of a direct Enzyme-Linked Immunosorbent Assay (ELISA) technique devised by Khan et al. (1982). Nunc immunoplates were sensitized with MMTV preparations disrupted in 2% NP-40 and serially diluted in 0.15M Na2 CO3 -0.035M NaHCO3 buffer, pH 8.6, by incubation in a moist chamber for 18 hours at 4° C. Wells were washed three times between all procedural steps with 0.01M phosphate-buffered-saline with 0.5% Tween 80, pH 7.4 (Pi/Na/Tween). Sensitized wells were then sequentially subjected to 1 hour incubations with (1) 0.5% bovine serum albumin in Pi/NaCl/Tween (4° C.), followed by either (2) preimmune rabbit sera or multivalent anti-MMTV antisera diluted 1:50 in Pi/NaCl/Tween at 37° C., and finally (3) a 1:1000 dilution of alkaline phosphatase-conjugated goat anti-rabbit IgG (Dynatech, Inc.) at 37° C. Reactions were terminated with 25 ul of 3N NaOH after incubation for 1 to 2 hours at 37° C. Intensity of the color reactions were determined at […] using a Dynatech ELISA plate reader. The detection limit of the assay was 3-5 ng MMTV protein per well.

MJY-alpha monolayers [4] = assay: Incorporation of radiolabeled precursors; format: cell-based
Procedure: The metabolism of treated MJY-alpha mammary tumor cell cultures were screened by monitoring the uptake and incorporation of 3H-uridine, 3H-thymidine, and 35S-methionine. Cultures were treated as described and given radiolabeled precursors in treatment medium at 0-24 for 24 to 48 hours during the treatment periods.
Levels of radioactivity incorporated into the cells were determined following harvesting of the cells on glass filters using a Mash II cell harvester. Each sample was examined in quadruplicate.
In addition to determining cellular viability by trypan blue exclusion, the levels of metabolic activity of PTT.119-treated cells were compared to solvent-treated and untreated controls. Confluent MJY-alpha monolayers were again processed as previously described and […], […], ^3 H-thymidine, and ^35 S-methionine incorporation quantitated during the 24 and 48 hour treatment periods. Following 24 hour tripeptide treatment, the only parameter that was substantially depressed compared to control cultures was the incorporation of ^35 S-radioactivity into cells treated with 15 uM PTT.119 (Table 10).

In the case of `CCOC(=O)[C@H](CCSC)NC(=O)[C@H](Cc1cccc(N(CCCl)CCCl)c1)NC(=O)[C@@H](N)Cc1ccc(F)cc1.Cl` [PTT.119, 3-(p-fluorophenyl)-L-alanyl-3-[m-bis(2-chloroethyl)aminophenyl]-L-alanyl-L-methionine ethyl ester hydrochloride], the T.C.D.100 (P388/L-PAM leukemia) is reported as 22.5, the “surviving fraction at end of examination period” value (P388/L-PAM leukemia) is reported as 0-0.5% and the “percentage of viable cells” value (P388/L-PAM leukemia; 3.75 µM) is reported as 0-1%. The IC50 (P388/L-PAM leukemia; Mus musculus, P388, 24 h, read-out: T.C.D.50) was 5 µM, the “MST” value (L1210 leukemia cells [1]; 7.5 uM, 30 min) was 21 days and the “MST” value (L1210 leukemia cells [1]; 7.5 uM, 60 min) was 32 days. The “MST” value (L1210 leukemia cells [1]; 15 uM, 15 min) was 8 days, the “mice free of tumor at end of 45-day examination period” value (L1210 leukemia cells [1]; L1210 cells, 7.5 and 15 uM, every group) was 80-100% and the “reduction of viability of tumor cell layers compared to solvent” value (MJY-alpha monolayers [2]) was 15-20%. The “% tumor cell survival” value (P HR-1 B-lymphoma; 10 ug/ml, 1 hr) was 96%, the “% tumor cell survival” value (P HR-1 B-lymphoma; 10 ug/ml, 4 hr) was 91% and the “% tumor cell survival” value (P HR-1 B-lymphoma; 10 ug/ml, 24 hr) was 75%. For the same molecule, the “% tumor cell survival” value (P HR-1 B-lymphoma; 25 ug/ml, 1 hr) was 92%, the “% tumor cell survival” value (P HR-1 B-lymphoma; 25 ug/ml, 4 hr) was 86% and the “% tumor cell survival” value (P HR-1 B-lymphoma; 25 ug/ml, 24 hr) was 69%. The “% tumor cell survival” value (P HR-1 B-lymphoma; 50 ug/ml, 1 hr) was 93%, the “% tumor cell survival” value (P HR-1 B-lymphoma; 50 ug/ml, 4 hr) was 75% and the “% tumor cell survival” value (P HR-1 B-lymphoma; 50 ug/ml, 24 hr) was 60%. For the same molecule, the “% tumor cell survival” value (Raji B-lymphoma; 10 ug/ml, 1 hr) was 98%, the “% tumor cell survival” value (Raji B-lymphoma; 10 ug/ml, 4 hr) was 98% and the “% tumor cell survival” value (Raji B-lymphoma; 10 ug/ml, 24 hr) was 82%. The “% tumor cell survival” value (Raji B-lymphoma; 25 ug/ml, 1 hr) was 100%, the “% tumor cell survival” value (Raji B-lymphoma; 25 ug/ml, 4 hr) was 97% and the “% tumor cell survival” value (Raji B-lymphoma; 25 ug/ml, 8 hr) was 97%. For the same molecule, the “% tumor cell survival” value (Raji B-lymphoma; 25 ug/ml, 24 hr) was 35%, the “% tumor cell survival” value (Raji B-lymphoma; 50 ug/ml, 1 hr) was 94% and the “% tumor cell survival” value (Raji B-lymphoma; 50 ug/ml, 4 hr) was 90%. The “% tumor cell survival” value (Raji B-lymphoma; 50 ug/ml, 8 hr) was 76%, the “% tumor cell survival” value (Raji B-lymphoma; 50 ug/ml, 24 hr) was 20% and the “cytotoxicity lower compared to untreated L1210 cells” value (L1210 leukemia cells [3]) was 20-30%. The “dose response curves of L1210, L1210-T1 and L1210-T2” value (L1210 leukemia cells [3]) was “no differences could be detected”, the “viability in continuous treatment” value (L1210 leukemia cells [3]) was “nonviable” and the “viability of L1210-T1 in continuous treatment” value (L1210 leukemia cells [3]) was “nonviable”. The “levels of extracellular MMTV compared to control cells” value (MMTV; 0.15, 1.5 and 7.5 uM, after 10 in vitro passages) was “less than 50%”, the “ug MMTV protein/150 cm^2 culture” value (MMTV; continual 0.15 uM, passage 1) was 17.4 µg and the “ug MMTV protein/150 cm^2 culture” value (MMTV; continual 0.15 uM, passage 5-6) was 16.8 µg. For the same molecule, the “ug MMTV protein/150 cm^2 culture” value (MMTV; continual 0.15 uM, passage 9-10) was 9.52 µg, the “ug MMTV protein/150 cm^2 culture” value (MMTV; continual 1.5 uM, passage 5-6) was 15.9 µg and the “ug MMTV protein/150 cm^2 culture” value (MMTV; continual 1.5 uM, passage 9-10) was 7.5 µg. The “ug MMTV protein/150 cm^2 culture” value (MMTV; continual 7.5 uM, passage 5-6) was 11.8 µg, the “ug MMTV protein/150 cm^2 culture” value (MMTV; continual 7.5 uM, passage 9-10) was 8.3 µg and the “MMTV protein, % of control level” value (MMTV; day 1, 15 uM 2 hr pulse) was 78%. The “ug MMTV protein/75 cm^2 flask” value (MMTV; day 1, 15 uM 2 hr pulse, control 20.6) was 16.0 µg, the “MMTV protein, % of control level” value (MMTV; day 1, 15 uM 4 hr pulse) was 81% and the “ug MMTV protein/75 cm^2 flask” value (MMTV; day 1, 15 uM 4 hr pulse, control 20.6) was 16.7 µg. The “MMTV protein, % of control level” value (MMTV; day 1, 37.5 uM 0.5 hr pulse) was 70%, the “ug MMTV protein/75 cm^2 flask” value (MMTV; day 1, 37.5 uM 0.5 hr pulse, control 20.6) was 14.4 µg and the “MMTV protein, % of control level” value (MMTV; day 1, 37.5 uM 1.0 hr pulse) was 53%. The “ug MMTV protein/75 cm^2 flask” value (MMTV; day 1, 37.5 uM 1.0 hr pulse, control 20.6) was 11.0 µg, the “MMTV protein, % of control level” value (MMTV; day 2, 15 uM 2 hr pulse) was 64% and the “ug MMTV protein/75 cm^2 flask” value (MMTV; day 2, 15 uM 2 hr pulse, control 19.3) was 12.3 µg. For the same molecule, the “MMTV protein, % of control level” value (MMTV; day 2, 15 uM 4 hr pulse) was 62%, the “ug MMTV protein/75 cm^2 flask” value (MMTV; day 2, 15 uM 4 hr pulse, control 19.3) was 11.9 µg and the “MMTV protein, % of control level” value (MMTV; day 2, 37.5 uM 0.5 hr pulse) was 57%. The “ug MMTV protein/75 cm^2 flask” value (MMTV; day 2, 37.5 uM 0.5 hr pulse, control 19.3) was 11.0 µg, the “MMTV protein, % of control level” value (MMTV; day 2, 37.5 uM 1.0 hr pulse) was 58% and the “ug MMTV protein/75 cm^2 flask” value (MMTV; day 2, 37.5 uM 1.0 hr pulse, control 19.3) was 11.2 µg. The “MMTV protein, % of control level” value (MMTV; day 7, 15 uM 2 hr pulse) was 31%, the “ug MMTV protein/75 cm^2 flask” value (MMTV; day 7, 15 uM 2 hr pulse, control 35.2) was 11.0 µg and the “MMTV protein, % of control level” value (MMTV; day 7, 15 uM 4 hr pulse) was 22%. For the same molecule, the “ug MMTV protein/75 cm^2 flask” value (MMTV; day 7, 15 uM 4 hr pulse, control 35.2) was 7.6 µg, the “MMTV protein, % of control level” value (MMTV; day 7, 37.5 uM 0.5 hr pulse) was 16% and the “ug MMTV protein/75 cm^2 flask” value (MMTV; day 7, 37.5 uM 0.5 hr pulse, control 35.2) was 5.8 µg. For the same molecule, the “MMTV protein, % of control level” value (MMTV; day 7, 37.5 uM 1.0 hr pulse) was 3%, the “ug MMTV protein/75 cm^2 flask” value (MMTV; day 7, 37.5 uM 1.0 hr pulse, control 35.2) was 0.9 µg and the “Relative level of incorporation of radiolabels (%)” value (“Relative level … (%)” for short) (MJY-alpha monolayers [4]; 1.5 uM, 24 hours, 3H-thy) was 91.2%. For the same molecule, the “Relative level … (%)” value (MJY-alpha monolayers [4]; 1.5 uM, 24 hours, 3H-ur) was 90.9%, the “Relative level … (%)” value (MJY-alpha monolayers [4]; 1.5 uM, 24 hours, 35S-met) was 103.3% and the “Relative level … (%)” value (MJY-alpha monolayers [4]; 1.5 uM, 48 hours, 3H-thy) was 118.1%. For the same molecule, the “Relative level … (%)” value (MJY-alpha monolayers [4]; 1.5 uM, 48 hours, 3H-ur) was 103.4%, the “Relative level … (%)” value (MJY-alpha monolayers [4]; 1.5 uM, 48 hours, 35S-met) was 96.1% and the “Relative level … (%)” value (MJY-alpha monolayers [4]; 7.5 uM, 24 hours, 3H-thy) was 99.0%. The “Relative level … (%)” value (MJY-alpha monolayers [4]; 7.5 uM, 24 hours, 3H-ur) was 100.6%, the “Relative level … (%)” value (MJY-alpha monolayers [4]; 7.5 uM, 24 hours, 35S-met) was 97.2% and the “Relative level … (%)” value (MJY-alpha monolayers [4]; 7.5 uM, 48 hours, 3H-thy) was 83.1%. For the same molecule, the “Relative level … (%)” value (MJY-alpha monolayers [4]; 7.5 uM, 48 hours, 3H-ur) was 108.6%, the “Relative level … (%)” value (MJY-alpha monolayers [4]; 7.5 uM, 48 hours, 35S-met) was 89.9% and the “depression of 3H-thymidine incorporation” value (MJY-alpha monolayers [4]; 7.5 uM, second day of treatment) was 17%. The “Relative level … (%)” value (MJY-alpha monolayers [4]; 15.0 uM, 24 hours, 3H-thy) was 103.6%, the “Relative level … (%)” value (MJY-alpha monolayers [4]; 15.0 uM, 24 hours, 3H-ur) was 100.1% and the “Relative level … (%)” value (MJY-alpha monolayers [4]; 15.0 uM, 24 hours, 35S-met) was 82.7%. For the same molecule, the “Relative level … (%)” value (MJY-alpha monolayers [4]; 15.0 uM, 48 hours, 3H-thy) was 82.9%, the “Relative level … (%)” value (MJY-alpha monolayers [4]; 15.0 uM, 48 hours, 3H-ur) was 80.5% and the “Relative level … (%)” value (MJY-alpha monolayers [4]; 15.0 uM, 48 hours, 35S-met) was 80.4%. For the same molecule, the “reductions in levels of cell-associated radioactivity, all three precursors” value (MJY-alpha monolayers [4]; 15 uM, second day of treatment) was 20%.
